In publication PMC10791743, “Selective CK1α degraders exert antiproliferative activity against a broad range of human cancer cell lines” (Nature Communications, 2024):
Values joined by “and” are separate entries in the source; they are usually repeats but may differ in a detail not shown here. Identical values can stand only once.

Columns and labels:
MOLM-13 cells = experiment: MOLM-13 cell viability assay (CTG, 72 h); assay type: cell-based, human; set-up: key to Cell viability in MOLM-13 cells / cell viability, dose-response replicate values: % viability = 100 − % activity, normalized to controls; details: for Cell viability in MOLM-13 cells: Lenalidomide series
Experimental: The primary screen was performed in 384-well format using the CellTiter Glo (CTG) luminescent cell viability assay (Promega) as previously described. […] After overnight incubation at 37 °C in a humidified 5% CO2 incubator, cells were treated with compounds in dose–response format using a Pintool on a Biomek FX^P Laboratory Automation Workstation (Beckman Coulter). […] Luminescence signal was measured using an EnVision plate reader (PerkinElmer). […]
number per well and incubated overnight at 37 °C in a humidified 5 % CO2 incubator. Compounds were transferred to the assay plate from a dose-response plate using a Labcyte Echo 650 Acoustic Liquid Handler (Beckman Coulter , USA). […]
using Promega’s CellTiter-Glo reagent according to the manufacturer’s recommendation.
Luminescence was measured on the Envision plate reader (PerkinElmer, USA). Raw luminescence relative light unit (RLU) values for each compound at each concentration were normalized to obtain % activity using the following equation (1): 100 × [(mean(negctrl) – compound)/(mean (negctrl) – mean (posctrl))]. The % activity was converted to % viability using the following equation (2):
(100 – % activity), and then pooled from replicate experiments prior to fitting. Here, negctrl and posctrl refer to the negative (DMSO) and positive controls (staurosporine) on each plate. Dose-response curves were fit to the Hill equation using the GraphPad Prism (version 10). […]

[1] = tested on: panel of 9 human cancer cell lines (HD-MB03, MB004, MB002, MHH-CALL4, MOLM-13, TF-1, HEL, OCI-AML3, AML193); experiment: Molecular glue library screening, CellTiter-Glo cell viability, 72 h; assay type: cell-based; details: CTG, dose-response
Experimental: We screened our molecular glue library (3630 compounds) against a panel of 9 pediatric cancer cell lines to identify molecules displaying cell-selective sensitivities. In addition to the four cell lines we previously described (MB002, MB004, HD-MB03, and MHHCALL-4)[27], we included five additional AML cell lines (MOLM-13, TF-1, HEL, OCI-AML3, and AML193) to cover a broader range of genetic diversity and cancer vulnerabilities. The library screening was performed in high throughput (384-well plates) by incubating the cells with compounds for 72 h and assessing cell viability via CellTiter-Glo (CTG) in a dose–response manner, as reported previously.
The primary screen was performed in 384-well format using the CellTiter Glo (CTG) luminescent cell viability assay (Promega) as previously described. 3630 compounds from the St. Jude proprietary molecular glue library were screened against 9 human cancer cell lines (HD-MB03, MB004, MB002, MHH-CALL4, MOLM-13, TF-1, HEL, OCI-AML3, AML193). Each cell line was cultured in the complete medium recommended by the vendor and seeded in Corning 8804 BC white 384-well assay plates at densities of 1000, 1000, 1500, 7500, 1250, 156, 625, 1250, 1250 cells per well for HD-MB03, MB004, MB002, MHH-CALL4, MOLM-13, TF-1, HEL, OCI-AML, AML193, respectively. After overnight incubation at 37 °C in a humidified 5% CO2 incubator, cells were treated with compounds in dose–response format using a Pintool on a Biomek FX^P Laboratory Automation Workstation (Beckman Coulter). After 72 h of incubation, cell proliferation was assessed using a CellTiter-Glo (CTG) luminescent cell viability assay (Promega) according to the manufacturer’s instructions. Luminescence signal was measured using an EnVision plate reader (PerkinElmer).

Nc1cccc2c1CN(C1CCC(=O)NC1=O)C2=O (centres unmarked) [lenalidomide, reference compound]
Effect on MOLM-13 cell viability (cytotoxicity) (MOLM-13 cells; CTG 72 h): did not show appreciable cytotoxicity
Cell viability in MOLM-13 cells (MOLM-13 cells; Conc 0.00055545): 109.633 and 88.9306 and 94.0401
Cell viability in MOLM-13 cells (MOLM-13 cells; Conc 0.00166636): 93.576 and 90.3639 and 96.1559
Cell viability in MOLM-13 cells (MOLM-13 cells; Conc 0.00499909): 90.3167 and 93.3429 and 87.1
Cell viability in MOLM-13 cells (MOLM-13 cells; Conc 0.0149973): 104.685 and 79.7406 and 92.7317
Cell viability in MOLM-13 cells (MOLM-13 cells; Conc 0.0449918): 87.2291 and 84.4121 and 81.9827
Cell viability in MOLM-13 cells (MOLM-13 cells; Conc 0.134975): 84.7339 and 87.0092 and 84.0481
Cell viability in MOLM-13 cells (MOLM-13 cells; Conc 0.404926): 83.6134 and 73.5361 and 80.3173
Cell viability in MOLM-13 cells (MOLM-13 cells; Conc 1.21478): 75.0522 and 81.9691 and 77.2827
Cell viability in MOLM-13 cells (MOLM-13 cells; Conc 3.64433): 84.7767 and 72.5751 and 71.171
Cell viability across the panel of AL and MB cell lines [1]: inactive
